Laboratory results: ChEMBL document CHEMBL6103615, “Thymidylate Kinase-Targeted Antimicrobial Peptides via Phage Display: A Novel Strategy against Gram-Negative Bacteria” (J Med Chem, 2025)
≈ marks a conversion by molar mass, not a printed value. Calls of active or inactive are those of the source. The rule behind the calls is not given here.

Experiments:
[1] = Toxicity in ICR mouse assessed as change in serum ALP level at 10 to 40 mg/kg, ip treated for 3 days consecutively; assay type: organism-based; conditions: in vivo, 72 h, dose 10-40 mg/kg, time 3 day
Escherichia coli [2] = assay: Antibacterial activity against Escherichia coli K88 infected in ICR mouse model of peritoneal sepsis assessed as bacterial load reduction in spleen at 20 mg/kg, ip measured after 10 hrs; assay type: functional, organism-based
Escherichia coli [3] = assay: Antibacterial activity against Escherichia coli K88 incubated for 12 to 18 hrs by microbroth dilution method; assay type: functional; conditions: time 12-18 hrs
[4] = test system: Staphylococcus epidermidis; assay: Antibacterial activity against Staphylococcus epidermidis 12228 incubated for 12 to 18 hrs by microbroth dilution method; assay type: functional; conditions: time 12-18 hrs
[5] = Selectivity ratio of MIC for antibacterial activity against Lactococcus lactis NZ9000 to MIC for antibacterial activity against Escherichia coli K88; assay type: functional
[6] = Relative hydrophobic moment of compound; assay type: physicochemical
Bacteria [7] = assay: Antibacterial activity against bacterial cells at 1 to 64 uM incubated for 4 hrs in presence of 50 percent serum; assay type: functional, organism-based; conditions: dose 1-64 µM
[8] = Toxicity in ICR mouse assessed as change in kidney index at 10 to 40 mg/kg, ip treated for 3 days consecutively; assay type: organism-based; conditions: in vivo, 72 h, dose 10-40 mg/kg, time 3 day
Escherichia coli [9] = assay: Induction of morphological changes in Escherichia coli K88 assessed as membrane folding at 2 uM incubated for 1 hr by SEM analysis; assay type: functional, organism-based
Escherichia coli [10] = assay: Antibacterial activity against Escherichia coli K88 infected in ICR mouse model of peritoneal sepsis assessed as reduction in blood TNF-alpha level at 20 mg/kg, ip measured after 10 hrs; assay type: functional, organism-based
Escherichia coli [11] = assay: Antibacterial activity against Escherichia coli K88 infected in ICR mouse model of peritoneal sepsis assessed as reduction in vacuolar degeneration of hepatocytes at 20 mg/kg, ip measured after 10 hrs by H and E staining based analysis; assay type: functional, organism-based
Escherichia coli [12] = assay: Induction of morphological changes in Escherichia coli K88 assessed as membrane permeability at edges at 2 uM incubated for 1 hr by TEM analysis; assay type: functional, organism-based
[13] = Selectivity ratio of MIC for antibacterial activity against Escherichia coli 078 to MIC for antibacterial activity against Escherichia coli K101; assay type: functional
Pseudomonas aeruginosa = assay: Antibacterial activity against Pseudomonas aeruginosa PAO1 incubated for 12 to 18 hrs by microbroth dilution method; assay type: functional; conditions: time 12-18 hrs
Escherichia coli [14] = assay: Antibacterial activity against Escherichia coli K88 infected in ICR mouse model of peritoneal sepsis assessed as bacterial load reduction in liver at 20 mg/kg, ip measured after 10 hrs; assay type: functional, organism-based
[15] = Selectivity ratio of MIC for antibacterial activity against Salmonella typhimurium 7731 to MIC for antibacterial activity against Escherichia coli K98; assay type: functional
Escherichia coli [16] = assay: Antibacterial activity against Escherichia coli K88 infected in ICR mouse model of peritoneal sepsis assessed as reduction in blood IL-1beta level at 20 mg/kg, ip measured after 10 hrs; assay type: functional, organism-based
Bacteria [17] = assay: Antibacterial activity against bacterial cells at pH 2 to 12; assay type: functional
[18] = Cytotoxicity against mouse RAW264.7 cells assessed as cell viability at 128 uM incubated for 4 hrs by MTT assay relative to control; assay type: toxicity, cell-based; conditions: read-out: Activity
Escherichia coli [19] = assay: Antibacterial activity against Escherichia coli K88 infected in ICR mouse model of peritoneal sepsis assessed as reduction in granulocyte infiltration in spleen at 20 mg/kg, ip measured after 10 hrs by H and E staining based analysis; assay type: functional, organism-based
[20] = test system: Lacticaseibacillus rhamnosus; assay: Antibacterial activity against Lactobacillus rhamnosus 7469 incubated for 12 to 18 hrs by microbroth dilution method; assay type: functional; conditions: time 12-18 hrs
[21] = Selectivity ratio of MIC for antibacterial activity against Lactobacillus rhamnosus 7469 to MIC for antibacterial activity against Escherichia coli K89; assay type: functional
[22] = Toxicity in ICR mouse assessed as change in spleen index at 10 to 40 mg/kg, ip treated for 3 days consecutively; assay type: organism-based; conditions: in vivo, 72 h, dose 10-40 mg/kg, time 3 day
[23] = Selectivity ratio of MIC for antibacterial activity against Staphylococcus epidermidis 12228 to MIC for antibacterial activity against Escherichia coli K91; assay type: functional
[24] = Effect on secondary structure of compound in 50 percent TFE assessed as formation of alpha-helical conformation at 100 uM by CD analysis; assay type: physicochemical
[25] = Antibacterial activity against Salmonella choleraesuis 21493 incubated for 12 to 18 hrs by microbroth dilution method; assay type: functional, Salmonella enterica subsp. enterica serovar Choleraesuis; conditions: Salmonella enterica, time 12-18 hrs
Escherichia coli [26] = assay: Disruption of membrane integrity in Escherichia coli K88 at 2 uM by PI staining based flow cytometry (reference value: 0.1 %); assay type: functional
[27] = Selectivity ratio of MIC for antibacterial activity against Pseudomonas aeruginosa PAO1 to MIC for antibacterial activity against Escherichia coli K97; assay type: functional
[28] = Selectivity ratio of MIC for antibacterial activity against Lactobacillus plantarum 8014 to MIC for antibacterial activity against Escherichia coli K90; assay type: functional
Escherichia coli [29] = assay: Induction of morphological changes in Escherichia coli K88 assessed as cytoplasmic leakage at 2 uM incubated for 1 hr by TEM analysis; assay type: functional, organism-based
[30] = Hemolytic activity against human red blood cells at 2 to 128 uM relative to control; assay type: toxicity, cell-based, Erythrocyte; conditions: dose 2-128 µM, read-out: Activity
Escherichia coli [31] = assay: Induction of morphological changes in Escherichia coli K88 assessed as membrane contraction at 2 uM incubated for 1 hr by SEM analysis; assay type: functional, organism-based
Bacteria [32] = assay: Antibacterial activity against bacterial cells at 100 degreeC at 1 to 64 uM incubated for 60 mins; assay type: functional, organism-based; conditions: dose 1-64 µM
Escherichia coli [33] = assay: Induction of outer membrane permeability in Escherichia coli K88 assessed as NPN leakage; assay type: functional, organism-based; conditions: dose 1-32 µM
Bacteria [34] = assay: Antibacterial activity against bacterial cells at pH 12; assay type: functional
[35] = Hydrophobicity of compound; assay type: physicochemical
Escherichia coli [36] = assay: Antibacterial activity against Escherichia coli K88 infected in ICR mouse model of peritoneal sepsis assessed as reduction in blood HMGB1 level at 20 mg/kg, ip measured after 10 hrs; assay type: functional, organism-based
Escherichia coli [37] = assay: Induction of cytoplasmic membrane depolarization in Escherichia coli K88 at 2 uM by DiSC3-5 dye based analysis; assay type: functional, organism-based
Staphylococcus aureus [38] = assay: Antibacterial activity against Staphylococcus aureus 29213 incubated for 12 to 18 hrs by microbroth dilution method; assay type: functional; conditions: time 12-18 hrs
Escherichia coli [39] = assay: Antibacterial activity against Escherichia coli K88 infected in ICR mouse model of peritoneal sepsis assessed as reduction in granulocyte infiltration in lungs at 20 mg/kg, ip measured after 10 hrs by H and E staining based analysis; assay type: functional, organism-based
[40] = Selectivity ratio of MIC for antibacterial activity against Staphylococcus aureus 25923 to MIC for antibacterial activity against Escherichia coli K93; assay type: functional
Staphylococcus aureus [41] = assay: Antibacterial activity against Staphylococcus aureus 25923 incubated for 12 to 18 hrs by microbroth dilution method; assay type: functional; conditions: time 12-18 hrs
Staphylococcus aureus [42] = assay: Antibacterial activity against methicillin-resistant Staphylococcus aureus 43300 incubated for 12 to 18 hrs by microbroth dilution method; assay type: functional; conditions: time 12-18 hrs
Escherichia coli [43] = assay: Induction of resistance development in Escherichia coli K88 at sub-MIC measured after 20 passages; assay type: functional, organism-based
Escherichia coli [44] = assay: Inhibition of DNA migration in Escherichia coli K88 at 16 uM incubated for 40 mins by agarose gel electrophoresis.; assay type: functional, organism-based

## CC[C@@H](C)[C@H](NC(=O)CNC(=O)[C@@H]1CCCN1C(=O)[C@H](CCCCN)NC(=O)[C@H](Cc1c[nH]c2ccccc12)NC(=O)[C@@H](NC(=O)[C@H](CCCCN)NC(=O)[C@H](CCCCN)NC(=O)[C@H](Cc1c[nH]c2ccccc12)NC(=O)[C@H](Cc1ccc(O)cc1)NC(=O)[C@H](CCCCN)NC(=O)[C@@H](NC(=O)[C@H](CC(C)C)NC(=O)[C@H](CC(N)=O)NC(=O)CNC(=O)[C@@H](N)CO)[C@@H](C)O)[C@@H](C)CC)C(=O)N[C@@H](CCCCN)C(=O)N[C@@H](CCCCN)C(=O)N[C@@H](Cc1c[nH]c2ccccc12)C(=O)N[C@H](C(=O)N[C@@H](CCCCN)C(=O)O)[C@H](C)CC
[1]
  Activity: Non-toxic
Escherichia coli [2]
  Activity: Active; Activity Comparable To Colistin Treatment
Escherichia coli [3]
  MIC: 2 µM (≈ 5.21 µg/mL)
[4]
  MIC: 128 µM (≈ 333 µg/mL)
[5]
  Ratio: >2
[6]
  Activity: 0.583
Bacteria [7]
  Activity: Active
[8]
  Activity: Non-toxic
Escherichia coli [9]
  Activity: Active
Escherichia coli [10]
  Activity: Active
Escherichia coli [11]
  Activity: Active
Escherichia coli [12]
  Activity: Active
[13]
  Ratio: >2
Pseudomonas aeruginosa
  MIC: 4 µM (≈ 10.4 µg/mL)
Escherichia coli [14]
  Activity: Active; Activity Comparable To Colistin Treatment
[15]
  Ratio: >2
Escherichia coli [16]
  Activity: Active
Bacteria [17]
  MIC: 2 µM (≈ 5.21 µg/mL)
[18]
  viability at 4 h, 128 µM: > 80%
Escherichia coli [19]
  Activity: Active
[20]
  MIC: 128 µM (≈ 333 µg/mL)
[21]
  Ratio: >2
[22]
  Activity: Non-toxic
[23]
  Ratio: >2
[24]
  Activity: Active
[25]
  MIC: 8 µM (≈ 20.8 µg/mL)
Escherichia coli [26]
  Activity: 96.8%
[27]
  Ratio: >2
[28]
  Ratio: >2
Escherichia coli [29]
  Activity: Active
[30]
  hemolysis at up to 128 µM: < 5%
Escherichia coli [31]
  Activity: Active
Bacteria [32]
  Activity: Active
Escherichia coli [33]
  Activity: Dose-dependent-effect
Bacteria [34]
  MIC: 4 µM (≈ 10.4 µg/mL)
[35]
  Activity: 0.391
Escherichia coli [36]
  Activity: Active
Escherichia coli [37]
  Activity: Active
Staphylococcus aureus [38]
  MIC: 128 µM (≈ 333 µg/mL)
Escherichia coli [39]
  Activity: Active
[40]
  Ratio: >2
Staphylococcus aureus [41]
  MIC: 128 µM (≈ 333 µg/mL)
Staphylococcus aureus [42]
  MIC: 128 µM (≈ 333 µg/mL)
Escherichia coli [43]
  Activity: inactive
Escherichia coli [44]
  inhibition: Active
